According to article PMC7867324, “Design, Synthesis and Biological Evaluation of New Pyrimidine Derivatives as Anticancer Agents” (Molecules, 2021):
Where a name gives a salt, the structure may show the parent alone. Read-outs that look alike come from different tables or passages of the source.

Experiments:
[1] = tested on: pharynx squamous cell carcinoma FaDu; assay: In vitro proliferation assay (sulforhodamine B), FaDu; format: cell-based, human
Description: (§1) The possible antitumoral activity of these new compounds was analyzed by the effects exerted on the proliferation of five human tumor cell lines of different histotype. Therefore, the modifications on cell viability and replication determined by the treatment with each single compound were evaluated. The following human tumor cell lines triple-negative breast cancer MDA-MB231, colon carcinoma HT-29, glioblastoma multiforme U-87 MG, tongue squamous cell carcinoma CAL27 and pharynx squamous cell carcinoma FaDu were treated for 24 and 48 h with 10, 20, 30, 40, 50 and 60 μM of each single compound.
(§2) Anti-proliferative activities are reported in Table 2 (compounds 1b–g, 3) and Table 3 (compounds 2a–f) in comparison with reference compound 1a.
(§3) The following human tumor cell lines were utilized in the present study: glioblastoma multiforme U-87 MG, triple-negative breast cancer MDA-MB231, colon carcinoma HT-29, tongue squamous cell carcinoma CAL27 and pharynx squamous cell carcinoma FaDu, all of which obtained from the American Type Culture Collection (Manassas, VA, USA). In addition, human dermal fibroblast primary cultures (HF) used as control of non-transformed cells, had been previously established in our laboratory.
(§4) The cells were grown at 37 °C and 5% CO2 in Dulbecco’s modified Eagle’s medium or RPMI 1640 medium supplemented with 10% fetal bovine serum, 2 mM glutamine and 50 U/mL penicillin-streptomycin (Sigma-Aldrich).
(§5) All compounds were solubilized in dimethylsulfoxide (DMSO) (Sigma) for a 10 mM stock solution and utilized to final concentrations from 100 nM to 60 μM for 24 and 48 h. Control cells were treated with equivalent amounts of DMSO in every experiment.
(§6) To determine cytotoxicity, a sulforhodamine B colorimetric assay was performed. Cells (1.5 × 10^4) were plated in a 96-well plate, grown for 24 h and then treated with different concentrations of each compound for 24 and 48 h at 37 °C. Cells were then fixed with 50% trichloroacetic acid for 1 h at 4 °C and stained for 30 min at room temperature with 0.4% sulforhodamine B in 1% acetic acid. Excess dye was removed by washing four times with 1% acetic acid. Protein-bound dye was dissolved in 10 mM Tris (pH 10), and optical density was determined at 510 nm using a microplate reader. Each experiment was performed three times and the media was calculated.

[2] = tested on: tongue squamous cell carcinoma CAL27; assay: In vitro proliferation assay (sulforhodamine B), CAL27; format: cell-based, human
Description: as §1, §2, §3, §4, §5, §6

[3] = tested on: human cancer cells of different histotypes; parameters: method as in PMID 30900116; conditions: cited from earlier work
colon carcinoma HT-29 = assay: In vitro proliferation assay (sulforhodamine B), HT-29; format: cell-based, human
Description: as §1, §2, §3, §4, §5, §6

[4] = tested on: triple-negative breast cancer MDA-MB231; assay: In vitro proliferation assay (sulforhodamine B), MDA-MB231; format: cell-based, human
Description: as §1, §2, §3, §4, §5, §6

[5] = Cytotoxicity on normal cells (sulforhodamine B), HF; format: cell-based, human; conditions: human, human dermal fibroblast primary cultures (HF), 48 h
Description: as §3, §4, §5, §6

[6] = tested on: glioblastoma multiforme U-87 MG; assay: In vitro proliferation assay (sulforhodamine B), U-87 MG; format: cell-based, human
Description: as §1, §2, §3, §4, §5, §6

[7] = tested on: five human tumor cell lines (HT-29, U-87 MG, MDA-MB231, CAL27, FaDu); assay: In vitro proliferation assay, summary over all tested tumor cell lines; format: cell-based; conditions: for EC50: Homo sapiens, all tested tumor cell lines, read-out: EC50s over the tested cell lines
Description: as §1, §2, §3, §4, §5, §6

[8] = tested on: human dermal fibroblasts (HF); assay: Cytotoxicity on normal cells (sulforhodamine B), HF; format: cell-based
Description: as §3, §4, §5, §6

[9] = Homo sapiens, CAL-27, 48 h, 48 h
[10] = Homo sapiens, HT-29, 48 h, 48 h
[11] = Homo sapiens, MDA-MB-231, 48 h, 48 h
[12] = Homo sapiens, CAL-27, 24 h, 24 h
[13] = Homo sapiens, HT-29, 24 h, 24 h

Compound | EC50 ([1]; Homo sapiens, FaDu, 48 h) [µM] | EC50 [2, 9] [µM] | EC50 (colon carcinoma HT-29; [10]) [µM] | EC50 [4, 11] [µM] | CC50 at 48 h [5] [µM] | EC50 ([6]; Homo sapiens, U-87 MG, 48 h) [µM] | EC50 ([7]; time not given) [µM] | EC50 (colon carcinoma HT-29; [13]) [µM] | further results
CCN(CC)CCCNc1cc(N)nc(Nc2cccc(Cl)c2)n1 [Compound 1a, N^2-(3-Chlorophenyl)-N^4-(3-(diethylamino)propyl)pyrimidine-2,4,6-triamine] | > 60 | 54.2 | 51.8 | 34.8 | > 60 | > 60 | – | – | effect on cell cycle ([3]; 20 μM): upregulation of p21 and p27 and blockage of the cell cycle at G0/G1; induction of apoptosis ([3]; 30–50 μM): induced apoptosis
CCN(CC)CCCNc1cc(N)nc(Nc2cccc(F)c2)n1 [Compound 1b, N^4-(3-(Diethylamino)propyl)-N^2-(3-fluorophenyl)pyrimidine-2,4,6-triamine] | 43.4 | 20 | 29.8 | 35.7 | 88 | 47.3 | – | – | EC50 ([2]; 48 h): 20.3 µM
CCN(CC)CCCNc1cc(N)nc(Nc2cccc(OC)c2)n1 [Compound 1c, N^4-(3-(Diethylamino)propyl)-N^2-(3-methoxyphenyl)pyrimidine-2,4,6-triamine] | 71 | 57 | 57 | 70.5 | – | > 60 | > 60 | – | –
CCN(CC)CCCNc1cc(N)nc(Nc2cccc([N+](=O)[O-])c2)n1 [Compound 1d, N^4-(3-(Diethylamino)propyl)-N^2-(3-nitrophenyl)pyrimidine-2,4,6-triamine] | 46.8 | 35.3 | 40.4 | 49.2 | 97 | 54.9 | – | – | –
CCCN(CCC)c1cc(N)nc(Nc2cccc(Cl)c2)n1 [Compound 1e, N^2-(3-chlorophenyl)-N^4,N^4-dipropylpyrimidine-2,4,6-triamine] | – | – | – | – | – | – | – | – | EC50 ([1]; 48 h): 29.7 µM; EC50 ([2]; 48 h): 24.7 µM; EC50 ([7]; 48 h of treatment): 25 to 45 µM; EC50 (colon carcinoma HT-29; 48 h): 28.5 µM; EC50 ([4]; 48 h): 34.2 µM; CC50 ([8]; 48 h): 68 µM; cytotoxic activity on normal somatic cells, not cytotoxic up to [8]: > 60 µM; EC50 ([6]; 48 h): 45.3 µM
CCCN(CCC)c1cc(N)nc(Nc2cccc(Cl)c2)n1 [Compound 1e-HCl, N^2-(3-chlorophenyl)-N^4,N^4-dipropylpyrimidine-2,4,6-triamine hydrochloride] | 39.8 | 30.3 | 29.3 | 50.2 | > 60 | 36.6 | – | – | –
CCCN(CCC)c1cc(N)nc(Nc2ccc(Cl)cc2F)n1 [Compound 1f, N^2-(4-Chloro-2-fluorophenyl)-N^4,N^4-dipropylpyrimidine-2,4,6-triamine] | 67 | 55 | 50 | 58 | 98 | > 60 | 50 to 75 | – | –
CN1CCN(c2cc(N)nc(Nc3cccc(Cl)c3)n2)CC1 [Compound 1g, N^2-(3-Chlorophenyl)-6-(4-methylpiperazin-1-yl)pyrimidine-2,4-diamine] | 87 | 60 | 60 | 55 | – | > 60 | – | – | –
CCN(CC)CCCNc1cc(N)nc(N(Cc2ccc(F)cc2)c2cccc(Cl)c2)n1 [Compound 2a, N^2-(3-chlorophenyl)-N^4-(3-(diethylamino)propyl)-N^2-(4-fluorobenzyl)pyrimidine-2,4,6-triamine] | 8.5 | 4.3 | 5.4 | 7.9 | 50.2 | 7.5 | 4 to 8 | 10.2 | EC50 ([1]; Homo sapiens, FaDu, 24 h): 26.2 µM; EC50 [2, 12]: 9.7 µM; negative regulation of growth (cell viability, Figure 3) ([7]; 1, 10, 20, 50 μM, 24 h and 48 h, each tumor cell line): significant at various concentrations and times; EC50 ([7]; 24 h of treatment): 10 to 26 µM; EC50 ([7]; 48 h of treatment): 5 to 8 µM; fold more active than 1a ([7]; vs hit 1a (RDS 3442), all tested cell lines, 48 h of treatment): 4–13 fold; EC50 ([4]; Homo sapiens, MDA-MB-231, 24 h, 24 h): 18 µM; negative regulation of growth (cell viability, Figure 3) ([8]; 1, 10, 20, 50 μM, 24 h and 48 h, normal fibroblasts): only weakly significant and exclusively at high concentrations at 48 h; EC50 ([6]; Homo sapiens, U-87 MG, 24 h): 22 µM
CCN(CC)CCCNc1cc(N)nc(N(Cc2ccc(F)cc2)c2cccc(F)c2)n1 [Compound 2b, N^4-(3-(diethylamino)propyl)-N^2-(4-fluorobenzyl)-N^2-(3-fluorophenyl)pyrimidine-2,4,6-triamine] | 23.8 | 5.1 | 10.4 | 7.3 | 54.7 | 17.7 | – | 20.2 | –
CCN(CC)CCCNc1cc(N)nc(N(Cc2ccc(F)cc2)c2cccc(OC)c2)n1 [Compound 2c, N^4-(3-(diethylamino)propyl)-N^2-(4-fluorobenzyl)-N^2-(3-methoxyphenyl)-pyrimidine-2,4,6-triamine] | 18 | 14.9 | 18.3 | 27.2 | 50.3 | 19.8 | 15 to 35 | 34.7 | EC50 ([1]; 48 h): 18.2 µM; folds more active than 3 ([1]; FaDu, 48 h of treatment, 2c vs 3): about 2.5 folds
CCN(CC)CCCNc1cc(N)nc(N(Cc2ccc(F)cc2)c2cccc([N+](=O)[O-])c2)n1 [Compound 2d, N^4-(3-(Diethylamino)propyl)-N^2-(4-fluorobenzyl)-N^2-(3-nitrophenyl)pyrimidine-2,4,6-triamine] | 20.5 | 10.3 | 12.7 | 17.3 | 55.2 | 30.1 | – | 25.2 | –
CCCN(CCC)c1cc(N)nc(N(Cc2ccc(F)cc2)c2cccc(Cl)c2)n1 [Compound 2e, N^2-(3-Chlorophenyl)-N^2-(4-fluorobenzyl)-N^4,N^4-dipropylpyrimidine-2,4,6-triamine] | > 60 | 59.3 | > 60 | > 60 | – | > 60 | > 60 | – | –
CCCN(CCC)c1cc(N)nc(N(Cc2ccc(F)cc2)c2ccc(Cl)cc2F)n1 [Compound 2f, N^2-(4-Chloro-2-fluorophenyl)-N^2-(4-fluorobenzyl)-N^4,N^4-dipropylpyrimidine-2,4,6-triamine] | > 60 | 45 | 30 | 58.3 | – | > 60 | – | – | EC50 ([2]; 48 h): 45.4 µM
COc1cccc(Nc2cc(N)nc(Nc3cccc(OC)c3)n2)c1 [Compound 3, N^2,N^4-bis(3-Methoxyphenyl)pyrimidine-2,4,6-triamine] | – | 10.4 | 11.7 | 10.2 | 65 | 22.9 | – | 28.2 | EC50 ([1]; Homo sapiens, FaDu, 24 h): 42.1 µM; EC50 [2, 12]: 20.3 µM; EC50 ([7]; 48 h of treatment): ≤ 20 µM; cytotoxic activity on normal somatic cells, not cytotoxic up to [8]: > 60 µM
